Here are results for three compounds from patent publication US7148250B2, “Indoles as NAALADase inhibitors” (Guilford Pharmaceuticals Inc., priority 2001, dated 2006).

Where a SMILES comes first, the peptide text is derived from it.

The subject of experiment [1] is STZ-diabetic rats. In words: Neuropathic pain in STZ model (thermal withdrawal latency). Format: in vivo, rat. To be noted: 10 mg/kg i.p. daily, treatment from 45 days post STZ. The protocol:
Male Sprague-Dawley rats (200–225 g) were rendered diabetic by intravenous administration of streptozotocin (“STZ”, 70 mg/kg in phosphate buffered saline). Diabetic animals were divided into five groups: one group receiving Compound A (10 mg/kg or 1 mg/kg), Compound D (10 mg/kg or 1 mg/kg) or vehicle. Another group of animals (non-STZ treated) served as non-diabetic controls. Drug/vehicle treatment was started in diabetic animals 45 days post-STZ administration. STZ-induced diabetic rats were tested for sensitivity to a heat source as soon as blood glucose levels rose to 320 mg/dl or above (30 days post STZ). The rats were then acclimated to a Hargreaves apparatus and thermal nociception was monitored using an infrared heat source directed into the dorsal surface of the hindpaw, and the time taken for the animal to remove its paw noted to the nearest 0.1 seconds (see Hargreaves et al., supra, for detailed experimental method). The intensity of the beam source was adjusted such that the mean latency for control animals (non-STZ treated) was approximately 10 seconds. Each animal was tested 8 times and the mean difference score (between mean non-diabetic control latency and mean diabetic latency) are graphically presented in FIGS. 7A and 7B.

Experiment [2] deals with Brown Norway rats with unilateral optic nerve transection. In words: Optic nerve transection, optic nerve fiber counting. Format: in vivo, Rattus norvegicus. To be noted: for FIBER NUMBER ± SEM / PERCENT DIFFERENCE ± SEM in fiber number between transected and normal eye: 10 mg/kg i.p. daily. The method, then: (§1) All experiments complied with the Association for Research in Vision and Ophthalmology Statement for the Use of Animals in Ophthalmic and Vision Research. 82 male Brown Norway rats (Rattus norvegicus), each weighing approximately 250 gm, were treated using procedures approved by the Animal Care Committee of the Johns Hopkins University School of Medicine. The rats were housed with a 12 hour light/12 hour dark cycle and fed ad libitum.
OPTIC NERVE TRANSECTION: The optic nerve was transected unilaterally in 26 rats under intraperitoneal pentobarbital anesthesia. The conjunctiva was opened with scissors and the optic nerve exposed by traction on extraocular muscles. The transection was performed with microscissors 5 mm posterior to the globe, with specific attention to avoidance of injury to major ocular blood vessels. Immediately after transection, the retina was examined ophthalmoscopically to assure that the retinal arterial blood supply was not disrupted. The conjunctiva was closed with absorbable suture and the eye dressed with antibiotic ointment. Beginning on the day of transection, the rats were treated daily with intraperitoneal injections of either a vehicle (9 rats with 50 mM HEPES-buffered saline) or a NAALADase inhibitor (8 rats with 10 mg/kg of Compound A and 9 rats with 10 mg/kg of Compound B). 5 saline treated rats, 3 Compound A treated rats and 4 Compound B treated rats were sacrificed at 2 weeks, and the remaining rats at 4 weeks, after transection.
(§2) OPTIC NERVE COUNTING: The rats were sacrificed by exsanguination under deep pentobarbital anesthesia. They were perfused through the heart with 2% paraformaldehyde/2% glutaraldehyde in 0.1 M phosphate buffer, pH 7.2, and the eyes with attached optic nerves were removed. A cross-section of the optic nerve from both experimental (glaucoma or transection) and control eyes was removed 1.5 mm posterior to the globe, 1 mm in thickness, and post-fixed in 2% osmium tetroxide in buffer. These were processed into epoxy resin, sectioned at 1 micron and stained with toluidine blue.
(§3) The area of the optic nerve cross-section was measured by outlining its outer border at 10× magnification on an image analysis system (Universal Imaging Corp., Westchester, Pa.) with Synsys digital camera and Metamorph software. Three area measurements were taken and the mean value was determined. To measure the density and fiber diameter distributions, images were captured with a 100× phase contrast objective from 10 different areas of each nerve. These were edited to eliminate non-neural objects and the size of each axon internal to the myelin sheath (its minimum diameter) and the density of axons/square mm were calculated for each image and nerve. The mean density was multiplied by total nerve area to yield fiber number for each nerve. The total fiber number in glaucoma or transection nerves was compared to the normal, fellow eye of each rat to yield a percent loss value. The number of axons counted among the 10 images was an approximately 20% sample of the 80–90,000 axons in normal rat nerves. The person measuring axon number was masked to the protocol conducted on the nerves.

In experiment [3] the test system is BB/W diabetic rats. In words: Progression of neuropathic pain and nerve conduction deficits in BB/W model. Format: in vivo, rat. The source says: Male BB/W rats (BRI, Mass) spontaneously develop a cell mediated autoimmune destruction of pancreatic B cells, resulting in onset of insulin-dependent (Type I) diabetes (Guberski 1994). […] This renders them valuable for experimental trials of new compounds for future treatments of this major disorder. In the present study, Compound D and Compound A were examined for their ability to alter the progression of diabetic neuropathy. The rats received daily injection of Compound D or Compound A (10 mg/kg i.p.) or vehicle, starting at the onset of diabetes (hyperglycemia) and up to 6 months thereafter. Another group of non-diabetic rats also receiving vehicle were tested. All animals were continuously monitored for body weight, urine volume, blood sugar and glycated haemoglobin. In the first month of the study, all animals were tested for thermal nociception in a Hargreaves apparatus, weekly. After the first month this was done biweekly and then monthly. The testing consists of directing an infrared heat source onto the dorsal surface of the rat hindpaw and noting the time taken for the animal to remove its paw (see Hargreaves et al., supra, for a description of the experimental method). Each animal was tested 8 times and the mean withdrawal latency noted.
Nerve conduction velocity was also measured every two weeks through the first eight weeks of treatment and every month thereafter through to the six months of treatment (see De Koning et al., Peptides, Vol. 8, No. 3, pp. 415–22 (1987) for a description of the experimental method). […] This was apparent starting at 8 weeks of treatment and persisted to a similar degree through to the six month termination point of the study.

In experiment [4] the test system is STZ-diabetic rats. In words: Diabetic neuropathy in STZ model (nerve conduction velocity). Type of experiment: in vivo, rat. To be noted: 10 mg/kg daily, 4, 8 and 12 weeks. The protocol: Motor and sensory nerve conduction velocity was also measured in STZ-diabetic animals after 4, 8 and 12 weeks of treatment (see De Koning et al., supra, for a description of the experimental method). Briefly, stimulating needle electrodes were inserted close to the sciatic and tibial nerves with recording electrodes being placed subcutaneously over the distal foot muscles, in anesthetized rats.

The test system of experiment [5] is Brown Norway rats with unilateral elevation of intraocular pressure. In words: Experimental rat glaucoma (IOP elevation), optic nerve fiber counting. Type of experiment: in vivo. To be noted: 8 week group, 10 mg/kg i.p. daily. The method, then:
as §1
EXPERIMENTAL GLAUCOMA: Unilateral elevation of intraocular pressure (“IOP”) was produced in 56 rats by microinjection of hypertonic saline into episcleral veins, following procedures described in Morrison, J. et al., IOVS (March 1998) 39:526–531. Beginning on the day of IOP elevation, the rats were treated daily with intraperitoneal injections of either a vehicle (23 rats with 50 mM HEPES-buffered saline) or a NAALADase inhibitor (11 rats with 10 mg/kg of Compound A and 22 rats with 10 mg/kg of Compound B). 11 saline treated rats, 11 Compound A treated rats and 11 Compound B treated rats were sacrificed at 8 weeks, and the remaining rats at 12 weeks, after initial IOP elevation.
as §2, §3

The test system of experiment [6] is transgenic G1H mice. Put plainly: Effect on onset of ALS in transgenic FALS mice. Type of experiment: in vivo, mouse. The method, then: The effect of NAALADase inhibitors on the onset of ALS was tested using the transgenic mice model of familial Amyotrophic Lateral Sclerosis (FALS), which is detailed in Gurney, M., Annals of Neurology (1996) 39:147–157, and otherwise well known in the art. One month old transgenic G1H mice were treated with daily intraperitoneal injections of a vehicle (50 mM HEPES-buffered saline) or a NAALADase inhibitor (50 mg/kg Compound A). Clinical symptoms of the mice were monitored daily. The onset of clinical disease was scored by examining each mouse for its shaking of limbs when suspended in the air by its tail, cross spread of spinal reflexes, hindlimb paralysis, body weight and wheel running activity.

Experiment [7] has as its system rats subjected to middle cerebral artery occlusion. Put plainly: Effect of NAALADase inhibition on TGF-β in in vivo ischemia model (MCAO). On the set-up: species or system rat. The source says:
The effect of TGF-β neutralizing antibodies on the neuroprotective effect of Compound C was also studied in rats following MCAO.

The test system of experiment [8] is chronic constrictive injury-induced rats. In words: Neuropathic pain in chronic constriction injury (CCI) model. Type of experiment: in vivo, rat. To be noted: 50 mg/kg i.p. daily from 10 days post surgery, significant from 11 days of treatment. The protocol:
Sciatic nerve ligation, consisting of 4 ligatures tied loosely around the sciatic nerve at 1 mm intervals proximal to the nerve trifurcation, was performed on rats. […] The rats were habituated to a Hargreaves apparatus. An infrared heat source was directed onto the dorsal surface of each rat's hindpaws and the time taken for the rat to withdraw its paws was noted. The difference in scores between the latency of the response for the paw on the operated side versus the paw on the unoperated control side was determined.
The rats received either Compound C (50 mg/kg i.p. daily) or a vehicle starting 10 days post surgery. […] Normal (unoperated) rats had approximately equal latencies for both paws. This effect was significant starting at 11 days of drug treatment and persisted through to the end of the study (for 21 days of daily dosing).

In experiment [9] the test system is ischemic cell cultures. Put plainly: Effect of NAALADase inhibition on TGF-β in in vitro ischemia model. Format: cell-based. The protocol:
A NAALADase inhibitor, Compound C, was added to ischemia cell cultures to determine its effect on TGF-β levels during stroke.
TGF-β neutralizing antibodies were then added to the ischemic cell cultures.

Experiment [10] deals with NAALADase. To be noted: read-out: Km of NAALADase for NAAG; cited from earlier work.
Setting [11] is: 2 weeks survival after transection.
[12] abbreviates: 4 weeks survival after transection.

Take `O=C(O)CCC(CP(=O)(O)Cc1c(F)c(F)c(F)c(F)c1F)C(=O)O` (centres unmarked) [Compound A]: the “hyperalgesic response (withdrawal latency difference score)” value in experiment [1] is recorded as “completely reversed”. In addition, the “remaining axons relative to saline-treated rats” value in experiment [2] (2 weeks after transection) amounted to 3 times. Moreover, the entries for the “FIBER NUMBER ± SEM” value in experiment [2] (setting [11]), in experiment [2] (setting [12]) and in experiment [5] were 26,426 ± 13,293, 13,599 ± 3,519 and 79156 ± 2436, respectively. In addition, the “PERCENT DIFFERENCE ± SEM in fiber number between transected and normal eye” value in experiment [2] (setting [11]) is listed as 65.3 ± 17.8%; in experiment [2] (setting [12]), 82.4 ± 4.0%. Also, the “nerve conduction velocity deficits versus diabetic vehicle controls” value in [3] (10 mg/kg daily, from 8 weeks to six months) is reported as “significantly less severe nerve conduction deficits”. In experiment [3] (10 mg/kg i.p. daily, from 4 weeks through six months of treatment), the “withdrawal latency versus diabetic vehicle-treated rats” value is recorded as “longer withdrawal latencies”. In addition, the “motor and sensory nerve conduction velocities” value in experiment [4] is on record as “tended to improve (increase)”. Moreover, the “PERCENT DIFFERENCE ± SEM in fiber number between glaucoma and normal eye” value in [5] (positive = fewer fibers in glaucoma eye) was −1.82 ± 2.92%. In addition, the “DIFFERENCE in disease onset, treated versus vehicle” value in [6] (Study 1) is reported as 32; in experiment [6] (Study 2), 25. The “DISEASE ONSET FOR COMPOUND A TREATED MICE” value in experiment [6] (Study 1, 50 mg/kg i.p. daily) stood at 221 days; in [6] (Study 2, 50 mg/kg i.p. daily) it was 166 days.
For `O=C(O)CCC(CP(=O)(O)O)C(=O)O` (centres unmarked) [Compound C, 2-(phosphonomethyl)-pentanedioic acid], the “neuroprotective effect in vivo with TGF-β neutralizing antibodies” value in [7] (FIG. 5) is recorded as “significantly attenuated”. The “TGF-β1 levels during occlusion and reperfusion” value in experiment [7] (microdialysis, FIG. 6) is given as “significant rise”. Also, in experiment [8], the “difference scores between the two paws (withdrawal latency)” value was “dramatically normalized”. Moreover, the “TGF-β1 concentrations in ischemic cell cultures” value in [9] (FIG. 1) is listed as “increased concentrations”. Also, in experiment [9] (FIG. 2), the “TGF-β2 concentrations in ischemic cell cultures” value is listed as “increased concentrations”. For the same compound, in [9] (in vitro ischemia model, FIG. 3), the “neuroprotective effect after addition of TGF-β neutralizing antibodies” value is on record as “blocked”. The “neuroprotective effect after addition of FGF antibody” value in [9] (in vitro ischemia model, FIG. 4) is recorded as “did not block”.
As for `CC(=O)N[C@@H](CC(=O)O)C(=O)N[C@@H](CCC(=O)O)C(=O)O` [NAAG, N-acetyl-aspartyl-glutamate] (Ac-Asp-Glu-OH), in experiment [10], the Km was 0.54 µM.

Usually Km stands for the concentration of substrate that gives half-maximal velocity.
